For 8 compounds, Ki results are on record in patent US20120172379A1, “4 SUBSTITUTED PYRAZOLOPYRIMIDINES” (VERTEX PHARMACEUTICALS INCORPORATED, priority 2009, published 2012).

What all share (type): biochemical
One assay concerns the target PKC delta kinase (Homo sapiens, UniProt Q05655). The assay can be described thus: PKC Delta coupled-enzyme kinase assay (NADH consumption, absorbance at 340 nm). Conditions: 46 nM PKC delta kinase, ATP final assay concentration of 150, 150 μM substrate peptide, 30° C. Here is the method: An assay buffer solution was prepared which consisted of 100 mM HEPES (pH 7.5), 10 mM MgCl2, 25 mM NaCl, 0.1 mM EDTA and 0.01% Brij. An enzyme buffer containing reagents to final assay concentrations of 0.002% Triton X-100, 200 μg/mL Phosphatidylserine, 20 μg/mL Diacylglycerol; 360 μM NADH, 3 mM phosphoenolpyruvate, 70 μg/mL pyruvate kinase, 24 μg/mL lactate dehydrogenase, 2 mM DTT, 150 μM substrate peptide (ERMRPRKRQGSVRRRV SEQ ID NO. 2) and 46 nM PKC delta kinase was prepared in assay buffer. To 16 μL of this enzyme buffer, in a 384 well plate, was added 1 μL of VRT stock solution in DMSO. The mixture was allowed to equilibrate for 10 mins at 30° C. The enzyme reaction was initiated by the addition of 16 μL stock ATP solution prepared in assay buffer to a final assay concentration of 150 Initial rate data was determined from the rate of change of absorbance at 340 nm (corresponding to stoichiometric consumption of NADH) using a Molecular Devices Spectramax plate reader (Sunnyvale, Calif.) over 15 mins at 30° C. For each Ki determination 12 data points covering the VRT concentration range of 0-20 μM were obtained in duplicate (DMSO stocks were prepared from an initial 10 mM VRT stock with subsequent 1:2 serial dilutions). Ki values were calculated from initial rate data by non-linear regression using the Prism software package (Prism 4.0a, Graphpad Software, San Diego, Calif.).

The target of another assay is PKC theta kinase (Homo sapiens, UniProt Q04759). Description: PKC Theta coupled-enzyme kinase assay (NADH consumption, absorbance at 340 nm). The conditions noted are these: 18 nM PKC theta kinase, 240 μM ATP, 100 μM substrate peptide, 30° C. Here is the method:
An assay buffer solution was prepared which consisted of 100 mM HEPES (pH 7.5), 10 mM MgCl2, 25 mM NaCl, 0.1 mM EDTA and 0.01% Brij. An enzyme buffer containing reagents to final assay concentrations of 0.00001% Triton X-100, 200 μg/mL Phosphatidylserine, 20 μg/mL Diacylglycerol, 360 μM NADH, 3 mM phosphoenolpyruvate, 70 μg/mL pyruvate kinase, 24 μg/mL lactate dehydrogenase, 2 mM DTT, 100 μM substrate peptide (ERMRPRKRQGSVRRRV SEQ ID NO. 1) and 18 nM PKC theta kinase was prepared in assay buffer. To 60 μL of this enzyme buffer, in a 384 well plate, was added 2 μL of VRT stock solution in DMSO. The mixture was allowed to equilibrate for 10 mins at 30° C. The enzyme reaction was initiated by the addition of 5 μL stock ATP solution prepared in assay buffer to a final assay concentration of 240 μM. Initial rate data was determined from the rate of change of absorbance at 340 nm (corresponding to stoichiometric consumption of NADH) using a Molecular Devices Spectramax plate reader (Sunnyvale, Calif.) over 15 mins at 30° C. For each Ki determination 12 data points covering the VRT concentration range of 0-20 μM were obtained in duplicate (DMSO stocks were prepared from an initial 10 mM VRT stock with subsequent 1:2 serial dilutions). Ki values were calculated from initial rate data by non-linear regression using the Prism software package (Prism 4.0a, Graphpad Software, San Diego, Calif.). […] 1.25 D>2.8 μM.

A further assay has as its target PKC alpha kinase (Homo sapiens, UniProt P17252). The assay can be described thus: PKC Alpha coupled-enzyme kinase assay (NADH consumption, absorbance at 340 nm). The conditions noted are these: 4.5 nM PKC alpha kinase, 130 μM ATP, 150 μM substrate peptide, 100 μM CaCl2, 30° C. The protocol: An assay buffer solution was prepared which consisted of 100 mM HEPES (pH 7.5), 10 mM MgCl2, 25 mM NaCl, 0.1 mM EDTA, 100 μM CaCl2 and 0.01% Brij. An enzyme buffer containing reagents to final assay concentrations of 0.002% Triton X-100, 100 μg/mL Phosphatidylserine, 20 μg/mL Diacylglycerol, 360 μM NADH, 3 mM phosphoenolpyruvate, 70 μg/mL pyruvate kinase, 24 μg/mL lactate dehydrogenase, 2 mM DTT, 150 μM substrate peptide (RRRRRKGSFKRKA SEQ ID NO. 3) and 4.5 nM PKC alpha kinase was prepared in assay buffer. To 16 μL of this enzyme buffer, in a 384 well plate, was added 1 μL of VRT stock solution in DMSO. The mixture was allowed to equilibrate for 10 mins at 30° C. The enzyme reaction was initiated by the addition of 16 μL stock ATP solution prepared in assay buffer to a final assay concentration of 130 μM. Initial rate data was determined from the rate of change of absorbance at 340 nm (corresponding to stoichiometric consumption of NADH) using a Molecular Devices Spectramax plate reader (Sunnyvale, Calif.) over 15 mins at 30° C. For each Ki determination 12 data points covering the VRT concentration range of 0-20 μM were obtained in duplicate (DMSO stocks were prepared from an initial 10 mM VRT stock with subsequent 1:2 serial dilutions). Ki values were calculated from initial rate data by non-linear regression using the Prism software package (Prism 4.0a, Graphpad Software, San Diego, Calif.).

Molecules are shown by their SMILES.

PKC delta kinase, sequence (Q05655 whole entry): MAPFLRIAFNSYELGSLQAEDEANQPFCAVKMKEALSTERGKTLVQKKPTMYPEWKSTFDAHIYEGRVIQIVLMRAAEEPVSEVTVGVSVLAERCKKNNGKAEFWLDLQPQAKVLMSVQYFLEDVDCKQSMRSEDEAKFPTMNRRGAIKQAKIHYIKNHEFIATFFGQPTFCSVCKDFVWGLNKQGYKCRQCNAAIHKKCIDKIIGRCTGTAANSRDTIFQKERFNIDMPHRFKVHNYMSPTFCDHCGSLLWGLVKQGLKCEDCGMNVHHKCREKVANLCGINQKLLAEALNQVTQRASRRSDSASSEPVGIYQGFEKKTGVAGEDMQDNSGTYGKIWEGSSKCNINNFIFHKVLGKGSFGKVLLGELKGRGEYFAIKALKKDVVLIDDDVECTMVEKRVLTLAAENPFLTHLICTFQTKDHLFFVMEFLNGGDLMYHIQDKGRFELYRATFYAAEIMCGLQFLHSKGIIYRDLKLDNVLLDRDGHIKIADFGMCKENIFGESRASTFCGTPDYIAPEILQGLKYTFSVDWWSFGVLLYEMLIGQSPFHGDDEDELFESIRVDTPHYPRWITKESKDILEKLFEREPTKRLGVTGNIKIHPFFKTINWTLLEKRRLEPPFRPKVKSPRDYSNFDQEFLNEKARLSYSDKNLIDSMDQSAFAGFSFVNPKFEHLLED
PKC theta kinase, sequence (Q04759 whole entry): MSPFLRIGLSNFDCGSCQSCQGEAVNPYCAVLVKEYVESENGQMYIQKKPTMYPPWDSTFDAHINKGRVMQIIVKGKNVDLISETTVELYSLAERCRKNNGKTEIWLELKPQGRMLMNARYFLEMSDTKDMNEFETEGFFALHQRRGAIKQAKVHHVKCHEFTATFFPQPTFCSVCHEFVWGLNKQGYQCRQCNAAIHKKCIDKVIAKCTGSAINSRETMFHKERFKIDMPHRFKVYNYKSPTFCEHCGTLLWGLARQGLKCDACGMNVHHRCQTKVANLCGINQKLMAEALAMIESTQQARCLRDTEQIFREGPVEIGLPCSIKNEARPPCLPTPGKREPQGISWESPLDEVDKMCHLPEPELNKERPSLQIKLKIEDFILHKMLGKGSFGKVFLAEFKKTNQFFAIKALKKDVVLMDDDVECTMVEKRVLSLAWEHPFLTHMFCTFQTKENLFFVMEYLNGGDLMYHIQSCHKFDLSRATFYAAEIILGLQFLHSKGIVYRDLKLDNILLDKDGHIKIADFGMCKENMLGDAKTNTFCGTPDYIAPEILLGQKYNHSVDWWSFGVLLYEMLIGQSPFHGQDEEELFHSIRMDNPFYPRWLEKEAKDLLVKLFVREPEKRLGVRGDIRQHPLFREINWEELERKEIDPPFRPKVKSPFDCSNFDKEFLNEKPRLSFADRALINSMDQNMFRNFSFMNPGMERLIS

For the compound `N#CC1(c2cccc(-c3ncnc4[nH]nc(C5CC5)c34)c2)CC1` [Compound 1, 1-(3-(3-cyclopropyl-1H-pyrazolo[3,4-d]pyrimidin-4-yl)phenyl)cyclopropanecarbonitrile], the Ki was > 1250 nM at PKC delta kinase, 50 to 500 nM on PKC theta kinase and > 1250 nM at PKC alpha kinase.
On to `CCc1n[nH]c2ncnc(-c3cccc(C4(C#N)CC4)c3)c12` [Compound 2], for which the Ki on PKC theta kinase is < 50 nM; on PKC alpha kinase, > 1250 nM.
As to `N#CC1(c2cccc(-c3ncnc4[nH]ncc34)c2)CC1` [Compound 3, 1-(3-(1H-pyrazolo[3,4-d]pyrimidin-4-yl)phenyl)cyclopropane carbonitrile], the values for the Ki on PKC delta kinase, at PKC theta kinase and at PKC alpha kinase were 500 to 2800 nM, < 50 nM and > 1250 nM, respectively.
`Cc1n[nH]c2ncnc(-c3cccc(C4(C#N)CC4)c3)c12` [Compound 4]: the Ki on PKC delta kinase was > 1250 nM; on PKC theta kinase it was < 50 nM; on PKC alpha kinase, > 1250 nM.
`CCc1n[nH]c2ncnc(-c3cccc(C4(CN)CC4)c3)c12` [Compound 5, (1-(3-(3-ethyl-1H-pyrazolo[3,4-d]pyrimidin-4-yl)phenyl)cyclopropyl)methanamine]: the Ki on PKC delta kinase is 50 to 500 nM; at PKC theta kinase, < 50 nM; at PKC alpha kinase, 500 to 2800 nM.
As to `Cc1n[nH]c2ncnc(-c3cccc(C4(CN)CC4)c3)c12` [Compound 6], the Ki is 500 to 2800 nM on PKC delta kinase, 50 to 500 nM on PKC theta kinase and > 1250 nM on PKC alpha kinase.
Turning to `NC(=O)C1(c2cccc(-c3ncnc4[nH]nc(C(F)(F)F)c34)c2)CC1` [Compound 7, 1-(3-(3-(trifluoromethyl)-1H-pyrazolo[3,4-d]pyrimidin-4-yl)phenyl)cyclopropanecarboxamide], the figures for the Ki on PKC delta kinase, at PKC theta kinase and at PKC alpha kinase were > 1250 nM, > 700 nM and > 1250 nM, respectively.
Take `CCc1n[nH]c2ncnc(-c3cc(F)cc(C4(CN)CCC4)c3)c12` [Compound 8, (1-(3-(3-ethyl-1H-pyrazolo[3,4-d]pyrimidin-4-yl)-5-fluorophenyl)cyclobutyl)methanamine]: the Ki was 50 to 500 nM at PKC delta kinase, < 50 nM at PKC theta kinase and 50 to 500 nM on PKC alpha kinase.

What is called Ki is the dissociation constant of the complex between target and ligand, obtained from inhibition or displacement. A low value points to a stronger hold on the target.
